PubChem BioAssay AID1627 (PCMD, 2009)
Records with an inconclusive call do not appear. Calls of active or inactive are those of the source. How the calls were made is not given here.

These compounds were tested against Procathepsin L (Homo sapiens) (UniProt P07711) (assay: CTSL inhibitor potency, thiol present – biochemical, cysteine present, dose response (AID 1627)). Conditions: purified cathepsin L, fluorogenic substrate, with cysteine.
Sequence of Procathepsin L (Homo sapiens) (P07711 114-288 limits assumed): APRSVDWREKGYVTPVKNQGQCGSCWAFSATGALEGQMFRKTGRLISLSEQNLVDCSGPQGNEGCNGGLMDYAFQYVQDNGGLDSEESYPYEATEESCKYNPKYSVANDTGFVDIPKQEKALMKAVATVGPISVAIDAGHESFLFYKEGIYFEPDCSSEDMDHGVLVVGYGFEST
Sequence of Procathepsin L (Homo sapiens) (P07711 292-333 limits assumed): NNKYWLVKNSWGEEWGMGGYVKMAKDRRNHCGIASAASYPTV

SMILES	IC50
CC(=O)c1c(O)n(C)c(=S)n(-c2ccccc2)c1=O	> 50 µM (inactive)
CC(=O)Nc1nc2n(n1)C(c1ccc(F)cc1)C=C(c1ccccc1)N2 (stereo not given)	> 50 µM (inactive)
N#CC1=C(N)Oc2c(sc3ccccc23)C1c1ccco1 (stereo not given)	> 50 µM (inactive)
O=S(=O)(/N=S1/CC=CCN1S(=O)(=O)c1ccccc1)c1ccccc1 (stereo not given)	> 50 µM (inactive)
CC1=C(C(=O)Nc2ccc(F)cc2)C(c2cccc(C)c2)n2nc(CCCO)nc2N1 (stereo not given)	> 50 µM (inactive)
COc1ccc(OC)c(C2C(C#N)=C(N)Oc3cc(C)n(Cc4ccccn4)c(=O)c32)c1 (stereo not given)	> 50 µM (inactive)
CCCCc1[nH]nc2c1C1(C(=O)N(CC)c3ccccc31)C(C#N)=C(N)O2 (stereo not given)	> 50 µM (inactive)
CN1CCc2c(sc3ncn4nc(-c5ccccc5O)nc4c23)C1	32 µM
CCCCOc1ccc(C2C3CN(C(=O)OCC)CC=C3C(C#N)=C(N)C2(C#N)C#N)cc1OC (stereo not given)	> 50 µM (inactive)
Nc1nc2n(n1)C1(CCCCC1)C1=C(CCCC1)N2	> 50 µM (inactive)
